Measured values taken from patent US20150105252A1, “SUBSTITUTED PYRAZOLES AS HERBICIDES” (E I DU PONT DE NEMOURS AND COMPANY, priority 2013, published 2015).

Key:
blackgrass = test: Test C postemergence; format: in vivo, Alopecurus myosuroides; details: for Plant response rating (scale of 0 to 100 where 0 is no effect and 100 is complete control), Blackgrass: Postemergence, 31 g ai/ha, visually evaluated after 13 to 15 days; for Blackgrass plant response rating / Plant response rating, Blackgrass: postemergence; for Blackgrass plant response rating: 62 g ai/ha, scale 0 to 100
How it was run: (§1)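 Greenhouse pot test: preemergence application onto freshly seeded loam/sand mix, postemergence application onto seedlings (1–4 leaves, 2–18 cm) in peat-vermiculite substrate. Responses scored visually 13 to 15 days later relative to controls, where 0 means no effect and 100 means complete control; a dash indicates no result.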

morningglory [1] = test: Test A postemergence; format: in vivo, Ipomoea spp.
How it was run: (§2)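 Growth medium: loam soil blended with sand. Preemergence treatment used a directed soil spray right after planting; postemergence treatment targeted seedlings at one to two leaves (2–10 cm height). Response was judged by eye relative to untreated plants about 10 days later on a 0–100 control scale.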

pigweed = test: Test A postemergence; format: in vivo, Amaranthus retroflexus
How it was run: as §2

morningglory [2] = test: Test A preemergence; format: in vivo, Ipomoea spp.; details: preemergence
How it was run: as §2

crabgrass, large [3] = test: Test C postemergence; format: in vivo, Digitaria sanguinalis; details: for Plant response rating (scale of 0 to 100 where 0 is no effect and 100 is complete control), Crabgrass, Large: Postemergence, 31 g ai/ha, visually evaluated after 13 to 15 days; for Crabgrass, Large plant response rating / Plant response rating, Crabgrass, Large: postemergence; for Crabgrass, Large plant response rating: 62 g ai/ha, scale 0 to 100
How it was run: as §1

johnsongrass = test: Test C postemergence; format: in vivo, Sorghum halepense; details: for Plant response rating (scale of 0 to 100 where 0 is no effect and 100 is complete control), Johnsongrass: Postemergence, 31 g ai/ha, visually evaluated after 13 to 15 days; for Johnsongrass plant response rating / Plant response rating, Johnsongrass: postemergence; for Johnsongrass plant response rating: 62 g ai/ha, scale 0 to 100
How it was run: as §1

barnyardgrass = test: Test B flood; format: in vivo, Echinochloa crus-galli; details: 250 g ai/ha, visual rating on 0 to 100 scale (0 no effect, 100 complete control), 13 to 15 days
How it was run: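 Visual ratings on a 0–100 scale, where 0 means no effect and 100 means complete control, were assigned by comparison with controls 13 to 15 days after treatment. Compounds went into paddy water over 2-leaf plants flooded to 3 cm.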

corn = test: Test C postemergence; format: in vivo, Zea mays; details: for Plant response rating (scale of 0 to 100 where 0 is no effect and 100 is complete control), Corn: Postemergence, 31 g ai/ha, visually evaluated after 13 to 15 days; for Corn plant response rating / Plant response rating, Corn: postemergence; for Corn plant response rating: 62 g ai/ha, scale 0 to 100
How it was run: as §1

crabgrass, large [4] = test: Test C preemergence; format: in vivo, Digitaria sanguinalis; details: for Plant response rating (scale of 0 to 100), Crabgrass, Large: Preemergence, 250 g ai/ha; for Crabgrass, Large plant response rating / Plant response rating, Crabgrass, Large: preemergence; for Plant response rating, Crabgrass, Large: 62 g ai/ha, scale 0 to 100, 0 = no effect, 100 = complete control
How it was run: as §1

foxtail, giant = test: Test C preemergence; format: in vivo, Setaria faberii; details: for Plant response rating (scale of 0 to 100), Foxtail, Giant: Preemergence, 250 g ai/ha; for Foxtail, Giant plant response rating / Plant response rating, Foxtail, Giant: preemergence; for Plant response rating, Foxtail, Giant: 62 g ai/ha, scale 0 to 100, 0 = no effect, 100 = complete control
How it was run: as §1

oilseed rape = test: Test C postemergence; format: in vivo, Brassica napus; details: for Plant response rating (scale of 0 to 100 where 0 is no effect and 100 is complete control), Oilseed Rape: Postemergence, 31 g ai/ha, visually evaluated after 13 to 15 days; for Oilseed Rape plant response rating / Plant response rating, Oilseed Rape: postemergence; for Oilseed Rape plant response rating: 62 g ai/ha, scale 0 to 100
How it was run: as §1

waterhemp = test: Test C preemergence; format: in vivo, Amaranthus rudis; details: for Plant response rating (scale of 0 to 100), Waterhemp: Preemergence, 250 g ai/ha; for Waterhemp plant response rating / Plant response rating, Waterhemp: preemergence; for Plant response rating, Waterhemp: 62 g ai/ha, scale 0 to 100, 0 = no effect, 100 = complete control
How it was run: as §1

wheat = test: Test C postemergence; format: in vivo, Triticum aestivum; details: for Plant response rating (scale of 0 to 100 where 0 is no effect and 100 is complete control), Wheat: Postemergence, 31 g ai/ha, visually evaluated after 13 to 15 days; for Wheat plant response rating / Plant response rating, Wheat: postemergence; for Wheat plant response rating: 62 g ai/ha, scale 0 to 100
How it was run: as §1

[5] = 250 g ai/ha, scale 0 to 100 (0 no effect, 100 complete control)
[6] = 125 g ai/ha, scale 0 to 100, 0 no effect, 100 complete control
[7] = Postemergence, 500 g ai/ha, visual rating after approx. 10 days, 0 to 100 scale (0 no effect, 100 complete control)
[8] = postemergence, 125 g ai/ha, about 10 days, visual rating on 0 to 100 scale (0 no effect, 100 complete control)
[9] = 125 g ai/ha, visual injury, 0 to 100 scale, approx. 10 days
[10] = 500 g ai/ha, visual injury after approx. 10 days, 0 to 100 scale (0 no effect, 100 complete control)
[11] = 31 g ai/ha, visual rating, scale 0 to 100 (0 no effect, 100 complete control), 13 to 15 days
[12] = 125 g ai/ha, scale 0 to 100, 0 is no effect, 100 is complete control

Compound: CCCc1cc(C(=O)NCC)nn1Cc1ccnc(C(F)(F)F)c1 [Compound 95]
- Plant response rating (scale of 0 to 100 where 0 is no effect and 100 is complete control), Blackgrass (blackgrass): 5
- Blackgrass plant response rating (blackgrass): 5
- Plant response rating, Blackgrass (blackgrass; [5]): 35
- Plant response rating, Blackgrass (blackgrass; [6]): 15
- Morningglory plant response rating (morningglory [1]; [7]): 100
- Morningglory plant response rating (morningglory [1]; [8]): 90
- Pigweed plant response rating (pigweed; [7]): 100
- Pigweed plant response rating (pigweed; [8]): 100
- Morningglory plant response rating (morningglory [2]; [9]): 100
- Morningglory plant response rating (morningglory [2]; [10]): 100
- Plant response rating (scale of 0 to 100 where 0 is no effect and 100 is complete control), Crabgrass, Large (crabgrass, large [3]): 5
- Crabgrass, Large plant response rating (crabgrass, large [3]): 10
- Plant response rating, Crabgrass, Large (crabgrass, large [3]; [5]): 45
- Plant response rating, Crabgrass, Large (crabgrass, large [3]; [6]): 40
- Plant response rating (scale of 0 to 100 where 0 is no effect and 100 is complete control), Johnsongrass (johnsongrass): 0
- Johnsongrass plant response rating (johnsongrass): 0
- Plant response rating, Johnsongrass (johnsongrass; [5]): 30
- Plant response rating, Johnsongrass (johnsongrass; [6]): 5
- Plant response rating, Barnyardgrass (barnyardgrass): 40
- Plant response rating (scale of 0 to 100 where 0 is no effect and 100 is complete control), Corn (corn): 5
- Corn plant response rating (corn): 10
- Plant response rating, Corn (corn; [5]): 10
- Plant response rating, Corn (corn; [6]): 10
- Plant response rating (scale of 0 to 100), Crabgrass, Large (crabgrass, large [4]): 100
- Crabgrass, Large plant response rating (crabgrass, large [4]; [11]): 98
- Plant response rating, Crabgrass, Large (crabgrass, large [4]; 13 to 15 days): 98
- Crabgrass, Large plant response rating (crabgrass, large [4]; [12]): 98
- Plant response rating (scale of 0 to 100), Foxtail, Giant (foxtail, giant): 100
- Foxtail, Giant plant response rating (foxtail, giant; [11]): 100
- Plant response rating, Foxtail, Giant (foxtail, giant; 13 to 15 days): 100
- Foxtail, Giant plant response rating (foxtail, giant; [12]): 100
- Plant response rating (scale of 0 to 100 where 0 is no effect and 100 is complete control), Oilseed Rape (oilseed rape): 30
- Oilseed Rape plant response rating (oilseed rape): 30
- Plant response rating, Oilseed Rape (oilseed rape; [5]): 50
- Plant response rating, Oilseed Rape (oilseed rape; [6]): 50
- Plant response rating (scale of 0 to 100), Waterhemp (waterhemp): 100
- Waterhemp plant response rating (waterhemp; [11]): 100
- Plant response rating, Waterhemp (waterhemp; 13 to 15 days): 100
- Waterhemp plant response rating (waterhemp; [12]): 100
- Plant response rating (scale of 0 to 100 where 0 is no effect and 100 is complete control), Wheat (wheat): 5
- Wheat plant response rating (wheat): 5
- Plant response rating, Wheat (wheat; [5]): 20
- Plant response rating, Wheat (wheat; [6]): 10

Compound: CCc1cc(C(=O)NC2CC2)nn1Cc1ccnc(OC(F)F)c1 [Compound 98]
- Plant response rating (scale of 0 to 100 where 0 is no effect and 100 is complete control), Blackgrass (blackgrass): 5
- Blackgrass plant response rating (blackgrass): 5
- Plant response rating, Blackgrass (blackgrass; [5]): 40
- Plant response rating, Blackgrass (blackgrass; [6]): 25
- Morningglory plant response rating (morningglory [1]; [7]): 90
- Morningglory plant response rating (morningglory [1]; [8]): 90
- Pigweed plant response rating (pigweed; [7]): 100
- Pigweed plant response rating (pigweed; [8]): 100
- Morningglory plant response rating (morningglory [2]; [9]): 100
- Morningglory plant response rating (morningglory [2]; [10]): 100
- Plant response rating (scale of 0 to 100 where 0 is no effect and 100 is complete control), Crabgrass, Large (crabgrass, large [3]): 10
- Crabgrass, Large plant response rating (crabgrass, large [3]): 15
- Plant response rating, Crabgrass, Large (crabgrass, large [3]; [5]): 50
- Plant response rating, Crabgrass, Large (crabgrass, large [3]; [6]): 45
- Plant response rating (scale of 0 to 100 where 0 is no effect and 100 is complete control), Johnsongrass (johnsongrass): 0
- Johnsongrass plant response rating (johnsongrass): 5
- Plant response rating, Johnsongrass (johnsongrass; [5]): 20
- Plant response rating, Johnsongrass (johnsongrass; [6]): 5
- Plant response rating, Barnyardgrass (barnyardgrass): 0
- Plant response rating (scale of 0 to 100 where 0 is no effect and 100 is complete control), Corn (corn): 5
- Corn plant response rating (corn): 5
- Plant response rating, Corn (corn; [5]): 10
- Plant response rating, Corn (corn; [6]): 5
- Plant response rating (scale of 0 to 100), Crabgrass, Large (crabgrass, large [4]): 100
- Crabgrass, Large plant response rating (crabgrass, large [4]; [11]): 98
- Plant response rating, Crabgrass, Large (crabgrass, large [4]; 13 to 15 days): 100
- Crabgrass, Large plant response rating (crabgrass, large [4]; [12]): 100
- Plant response rating (scale of 0 to 100), Foxtail, Giant (foxtail, giant): 100
- Foxtail, Giant plant response rating (foxtail, giant; [11]): 100
- Plant response rating, Foxtail, Giant (foxtail, giant; 13 to 15 days): 100
- Foxtail, Giant plant response rating (foxtail, giant; [12]): 100
- Plant response rating (scale of 0 to 100 where 0 is no effect and 100 is complete control), Oilseed Rape (oilseed rape): 20
- Oilseed Rape plant response rating (oilseed rape): 25
- Plant response rating, Oilseed Rape (oilseed rape; [5]): 30
- Plant response rating, Oilseed Rape (oilseed rape; [6]): 30
- Plant response rating (scale of 0 to 100), Waterhemp (waterhemp): 100
- Waterhemp plant response rating (waterhemp; [11]): 98
- Plant response rating, Waterhemp (waterhemp; 13 to 15 days): 98
- Waterhemp plant response rating (waterhemp; [12]): 100
- Plant response rating (scale of 0 to 100 where 0 is no effect and 100 is complete control), Wheat (wheat): 5
- Wheat plant response rating (wheat): 5
- Plant response rating, Wheat (wheat; [5]): 20
- Plant response rating, Wheat (wheat; [6]): 5
